# Ends that are not written are not given here. Peptide text beside a SMILES is read from it.
# Experiments:
# [1] = target: T1, CRF2R (Homo sapiens, UniProt Q13324); experiment: CRF2R agonist activation (EC50 / Emax), called comparative CRF binding; format: cell-based; conditions: for EC50: read-out: CRF2R EC50; for Emax: read-out: CRF2R Emax
# T1 sequence (Q13324 1-411): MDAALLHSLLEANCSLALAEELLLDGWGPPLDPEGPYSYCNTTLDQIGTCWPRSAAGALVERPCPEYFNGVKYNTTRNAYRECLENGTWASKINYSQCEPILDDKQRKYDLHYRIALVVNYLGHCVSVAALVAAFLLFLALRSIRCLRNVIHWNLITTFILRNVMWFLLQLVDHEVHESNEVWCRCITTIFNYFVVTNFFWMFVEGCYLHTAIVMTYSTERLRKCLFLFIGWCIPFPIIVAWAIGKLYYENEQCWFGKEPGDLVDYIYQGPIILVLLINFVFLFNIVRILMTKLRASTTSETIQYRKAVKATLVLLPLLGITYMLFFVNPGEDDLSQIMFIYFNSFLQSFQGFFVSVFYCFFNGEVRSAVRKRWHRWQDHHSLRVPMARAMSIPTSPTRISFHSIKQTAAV
# Outline: (§1)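 Agonism is scored from cAMP rise, assayed in lysates or through CRE-driven reporter expression, after peptide contact with cells bearing human CRF2R or CRF1R, compared against vehicle-treated cells.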
# [2] = target: T2, CRF1R (Homo sapiens, UniProt P34998); experiment: CRF1R agonist activation (EC50 / Emax), called comparative CRF binding; format: cell-based; conditions: for EC50: read-out: CRF1R EC50; for Emax: read-out: CRF1R Emax
# T2 sequence (P34998 24-415): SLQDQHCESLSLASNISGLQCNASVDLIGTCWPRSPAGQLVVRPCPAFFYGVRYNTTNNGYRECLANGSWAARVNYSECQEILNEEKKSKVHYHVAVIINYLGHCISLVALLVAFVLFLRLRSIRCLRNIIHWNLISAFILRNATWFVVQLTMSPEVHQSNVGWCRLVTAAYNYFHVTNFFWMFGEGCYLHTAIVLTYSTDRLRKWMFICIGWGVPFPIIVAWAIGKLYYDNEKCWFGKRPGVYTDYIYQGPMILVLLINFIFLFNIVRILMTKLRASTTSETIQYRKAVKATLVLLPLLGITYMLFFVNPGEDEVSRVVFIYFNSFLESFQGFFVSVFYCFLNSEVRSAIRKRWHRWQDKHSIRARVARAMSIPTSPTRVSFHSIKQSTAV
# Outline: as §1
Compound,EC50 [1],Emax [1],EC50 [2],Emax [2]
CC[C@H](C)[C@H](N)C(=O)N[C@H](C(=O)N[C@@H](CC(C)C)C(=O)N[C@@H](CO)C(=O)N[C@@H](CC(C)C)C(=O)N[C@@H](CC(=O)O)C(=O)N[C@H](C(=O)N1CCC[C@H]1C(=O)N[C@H](C(=O)NCC(=O)N[C@@H](CC(C)C)C(=O)N[C@@H](CC(C)C)C(=O)N[C@@H](CCC(N)=O)C(=O)N[C@H](C(=O)N[C@@H](CC(C)C)C(=O)N[C@@H](CC(C)C)C(=O)N[C@@H](CCC(=O)O)C(=O)N[C@@H](CCC(N)=O)C(=O)N[C@@H](C)C(=O)N[C@@H](CCCCN)C(=O)N[C@@H](C)C(=O)N[C@@H](CC(=O)O)C(=O)N[C@@H](C)C(=O)N[C@@H](C)C(=O)N[C@@H](CCCNC(=N)N)C(=O)N[C@@H](CCC(=O)O)C(=O)N[C@@H](CCC(N)=O)C(=O)N[C@@H](C)C(=O)N[C@H](C(=O)N[C@H](C(=O)N[C@@H](CC(N)=O)C(=O)N[C@@H](C)C(=O)N[C@@H](CCCNC(=N)N)C(=O)N[C@H](C(=O)N[C@@H](CC(C)C)C(=O)N[C@@H](C)C(=O)N[C@@H](CCCNC(=N)N)C(=O)N[C@H](C(N)=O)C(C)C)[C@@H](C)CC)[C@@H](C)O)[C@@H](C)O)[C@@H](C)CC)[C@@H](C)CC)C(C)C)C(C)C [compound 131] (H-IVLSLDVPIGLLQILLEQAKADAAREQATTNARILARV-NH2; N-terminus assumed),5.25 nM,91%,> 100 nM,8%
CC[C@H](C)[C@H](N)C(=O)N[C@H](C(=O)N[C@@H](CC(C)C)C(=O)N[C@@H](CO)C(=O)N[C@@H](CC(C)C)C(=O)N[C@@H](CC(=O)O)C(=O)N[C@H](C(=O)N1CCC[C@H]1C(=O)N[C@H](C(=O)NCC(=O)N[C@@H](CC(C)C)C(=O)N[C@@H](CC(C)C)C(=O)N[C@@H](CCC(N)=O)C(=O)N[C@@H](CCCCN)C(=O)N[C@H](C(=O)N[C@H](C(=O)N[C@@H](CCC(=O)O)C(=O)N[C@H](C(=O)N[C@@H](CCC(=O)O)C(=O)N[C@@H](CCCCN)C(=O)N[C@@H](CCC(N)=O)C(=O)N[C@@H](CCC(=O)O)C(=O)N[C@@H](CCCCN)C(=O)N[C@@H](CCC(=O)O)C(=O)N[C@@H](CCCCN)C(=O)N[C@@H](CCC(N)=O)C(=O)N[C@@H](CCC(N)=O)C(=O)N[C@@H](C)C(=O)N[C@H](C(=O)N[C@H](C(=O)N[C@@H](CC(N)=O)C(=O)N[C@@H](C)C(=O)N[C@@H](CCCNC(=N)N)C(=O)N[C@H](C(=O)N[C@@H](CC(C)C)C(=O)N[C@@H](C)C(=O)N[C@@H](CCCNC(=N)N)C(=O)N[C@H](C(N)=O)C(C)C)[C@@H](C)CC)[C@@H](C)O)[C@@H](C)O)[C@@H](C)CC)[C@@H](C)CC)C(C)C)[C@@H](C)CC)C(C)C)C(C)C [compound 300] (H-IVLSLDVPIGLLQKVIEIEKQEKEKQQATTNARILARV-NH2; N-terminus assumed),–,100%,–,7.95%
NDDPPISIDLPFFLLRNMIEMARIENEREQAGLNAKYLAEV-NH2 [compound 264],–,66.3%,–,100%
SQEPPISLDLPLGLLREVLEMTKADQLAQQAHSNRKLLDIA-NH2 [compound 90],–,12.2%,–,4%
SQEIVLSLDVPIGLLREVLEMTKADQLAQQAHSNRKLLDIA-NH2 [compound 7],≥ 100 nM,–,≥ 100 nM,–
CC[C@H](C)[C@H](NC(=O)[C@H](CCCNC(=N)N)NC(=O)[C@H](C)NC(=O)[C@H](CC(N)=O)NC(=O)[C@H](CCC(N)=O)NC(=O)[C@H](CCC(=O)O)NC(=O)[C@H](C)NC(=O)[C@H](CCCNC(=N)N)NC(=O)[C@H](CCC(=O)O)NC(=O)[C@H](CCCNC(=N)N)NC(=O)[C@H](CCC(N)=O)NC(=O)[C@H](CO)NC(=O)[C@H](CCC(N)=O)NC(=O)[C@@H](NC(=O)[C@H](CCCCN)NC(=O)[C@H](CCC(=O)O)NC(=O)[C@H](CC(C)C)NC(=O)[C@H](CCC(=O)O)NC(=O)[C@H](CC(C)C)NC(=O)[C@H](CC(C)C)NC(=O)[C@@H](NC(=O)[C@H](CCCNC(=N)N)NC(=O)[C@H](CC(C)C)NC(=O)[C@H](CC(C)C)NC(=O)[C@H](Cc1ccccc1)NC(=O)[C@H](Cc1ccccc1)NC(=O)[C@@H]1CCCN1C(=O)[C@@H](NC(=O)[C@H](CC(=O)O)NC(=O)[C@@H](NC(=O)[C@H](CO)NC(=O)[C@H](CC(C)C)NC(=O)[C@H](CO)NC(=O)[C@@H]1CCCN1C(=O)[C@H](CC(N)=O)NC(=O)[C@@H](N)CC(=O)O)[C@@H](C)CC)C(C)C)[C@@H](C)O)[C@@H](C)O)C(=O)N[C@@H](Cc1ccccc1)C(=O)N[C@@H](C)C(=O)N[C@@H](CCCNC(=N)N)C(=O)N[C@H](C(N)=O)C(C)C [compound 386] (H-DNPSLSIDVPFFLLRTLLELEKTQSQRERAEQNARIFARV-NH2; N-terminus assumed),8.7 nM,96%,≥ 1000 nM,78.2%
CC[C@H](C)[C@H](NC(=O)[C@H](CCCNC(=N)N)NC(=O)[C@H](C)NC(=O)[C@H](CC(N)=O)NC(=O)[C@H](CCC(N)=O)NC(=O)[C@H](CCC(=O)O)NC(=O)[C@H](C)NC(=O)[C@H](CCCNC(=N)N)NC(=O)[C@H](CCC(=O)O)NC(=O)[C@H](CCCNC(=N)N)NC(=O)[C@H](CCC(N)=O)NC(=O)[C@H](CO)NC(=O)[C@H](CCC(N)=O)NC(=O)[C@@H](NC(=O)[C@H](CCCNC(=N)N)NC(=O)[C@H](C)NC(=O)[C@H](CC(C)C)NC(=O)[C@H](CCC(=O)O)NC(=O)[C@H](CC(C)C)NC(=O)[C@H](CC(C)C)NC(=O)[C@@H](NC(=O)[C@H](CCCNC(=N)N)NC(=O)[C@H](CC(C)C)NC(=O)[C@H](CC(C)C)NC(=O)[C@H](CC(C)C)NC(=O)[C@H](CC(C)C)NC(=O)[C@@H]1CCCN1C(=O)[C@H](CC(C)C)NC(=O)[C@H](CC(=O)O)NC(=O)[C@@H](NC(=O)[C@H](CO)NC(=O)[C@H](CC(C)C)NC(=O)[C@H](CO)NC(=O)[C@@H]1CCCN1C(=O)[C@H](CC(N)=O)NC(=O)[C@@H](N)CC(=O)O)[C@@H](C)CC)[C@@H](C)O)[C@@H](C)O)C(=O)N[C@@H](Cc1ccccc1)C(=O)N[C@@H](C)C(=O)N[C@@H](CCCNC(=N)N)C(=O)N[C@H](C(N)=O)C(C)C [compound 340] (H-DNPSLSIDLPLLLLRTLLELARTQSQRERAEQNARIFARV-NH2; N-terminus assumed),–,100%,–,96%
CC[C@H](C)[C@H](NC(=O)[C@H](CCC(=O)O)NC(=O)[C@H](C)NC(=O)[C@H](CC(N)=O)NC(=O)[C@H](CCC(N)=O)NC(=O)[C@H](CCC(=O)O)NC(=O)[C@H](C)NC(=O)[C@H](CCCNC(=N)N)NC(=O)[C@H](CCC(=O)O)NC(=O)[C@H](CCCNC(=N)N)NC(=O)[C@H](CCC(N)=O)NC(=O)[C@H](CO)NC(=O)[C@H](CCC(N)=O)NC(=O)[C@@H](NC(=O)[C@H](CCCCN)NC(=O)[C@H](CCC(=O)O)NC(=O)[C@H](CC(C)C)NC(=O)[C@H](CCC(=O)O)NC(=O)[C@H](CC(C)C)NC(=O)[C@H](CC(C)C)NC(=O)[C@@H](NC(=O)[C@H](CCCNC(=N)N)NC(=O)[C@H](CC(C)C)NC(=O)[C@H](CC(C)C)NC(=O)[C@H](CC(C)C)NC(=O)[C@H](CC(C)C)NC(=O)[C@@H]1CCCN1C(=O)[C@H](CC(C)C)NC(=O)[C@H](CC(=O)O)NC(=O)[C@@H](NC(=O)[C@H](CO)NC(=O)[C@H](CC(C)C)NC(=O)[C@H](CO)NC(=O)[C@@H]1CCCN1C(=O)[C@H](CC(N)=O)NC(=O)[C@@H](N)CC(=O)O)[C@@H](C)CC)[C@@H](C)O)[C@@H](C)O)C(=O)N[C@@H](Cc1ccccc1)C(=O)N[C@@H](C)C(=O)N[C@@H](CCC(=O)O)C(=O)N[C@H](C(N)=O)C(C)C [compound 323] (H-DNPSLSIDLPLLLLRTLLELEKTQSQRERAEQNAEIFAEV-NH2; N-terminus assumed),–,100%,–,36.9%
CC[C@H](C)[C@H](N)C(=O)N[C@H](C(=O)N[C@@H](CC(C)C)C(=O)N[C@@H](CO)C(=O)N[C@@H](CC(C)C)C(=O)N[C@@H](CC(=O)O)C(=O)N[C@H](C(=O)N[C@@H](CO)C(=O)N[C@H](C(=O)NCC(=O)N[C@@H](CC(C)C)C(=O)N[C@@H](CC(C)C)C(=O)N[C@@H](CCC(N)=O)C(=O)N[C@H](C(=O)N[C@@H](CC(C)C)C(=O)N[C@@H](CC(C)C)C(=O)N[C@@H](CCC(=O)O)C(=O)N[C@@H](CCC(N)=O)C(=O)N[C@@H](C)C(=O)N[C@@H](CCCNC(=N)N)C(=O)N[C@@H](C)C(=O)N[C@@H](CCCNC(=N)N)C(=O)N[C@@H](C)C(=O)N[C@@H](C)C(=O)N[C@@H](CCCNC(=N)N)C(=O)N[C@@H](CCC(=O)O)C(=O)N[C@@H](CCC(N)=O)C(=O)N[C@@H](C)C(=O)N[C@H](C(=O)N[C@H](C(=O)N[C@@H](CC(N)=O)C(=O)N[C@@H](C)C(=O)N[C@@H](CCCNC(=N)N)C(=O)N[C@H](C(=O)N[C@@H](CC(C)C)C(=O)N[C@@H](C)C(=O)N[C@@H](CCCNC(=N)N)C(=O)N[C@H](C(N)=O)C(C)C)[C@@H](C)CC)[C@@H](C)O)[C@@H](C)O)[C@@H](C)CC)[C@@H](C)CC)C(C)C)C(C)C [compound 370] (H-IVLSLDVSIGLLQILLEQARARAAREQATTNARILARV-NH2; N-terminus assumed),51 nM,75%,≥ 1000 nM,33%

# — patent publication US6936585B2, “Corticotropin releasing factor 2 receptor agonists” (priority 2002, dated 2005)
